From patent publication US10722582B2, “Targeted antimicrobial photodynamic therapy” (Purdue Research Foundation, priority 2018, dated 2020)
Marks after values point to notes of the source that are not given here.

Tests used:
[1] = test system: MRSA (USA500), clinical isolate NRS 385; test: aPDI with CFL irradiation (406 nm), planktonic bacteria, drop-plate colony count; type: cell-based, Staphylococcus aureus; settings: for potency relative to dark toxicity (0 min exposure): 15 min CFL, 3-log reduction
Description: (§1) In all cases, we observed potent aPDI with bactericidal activities at 1-5 μM (Table 1). The consistent response to Ga-PpIX treatment is encouraging, as variable efficacy between strains is a known problem in antimicrobial photodynamic therapy (Nakonieczna, J. et al., Photodiagn. Photodyn. Ther. 2012, 9, 359-361). […] We note that PpIX is already approved as a photosensitizer for topical treatment of several skin diseases, but its utility is limited by poor photostability.
(§2) All bacterial strains were cultured at 37° C. in an aerobic atmosphere unless otherwise noted. […] Bacterial counts were estimated in units of cfu/mL by plating serial dilutions onto agar plates, followed by incubation for 16 hours at 37° C. Iron-challenged conditions were typically achieved by first growing the bacteria in standard (iron-replete) media (see Table 2), then harvesting and resuspending in media containing 3 mM 2,2′-bipyridine. Further details and variations on iron-deficient culture conditions are provided in Supporting Information.
(§3) A 20-W compact fluorescent lightbulb (CFL; Sunlite SL20/BLB) housed in an ellipsoidal reflector dome was used for aPDI, at an emission wavelength at 406 nm and a mean power density of 12.4 mW/cm^2 (after applying a 408-nm shortpass filter). Antimicrobial assays were performed on planktonic bacteria at 10^7 cfu/mL with variable exposure times to CFL irradiation, followed by plating on agar and incubation at 37° C. In a typical experiment, bacterial suspensions were transferred into 96-well plates then treated with 100-μL aliquots of Ga-PpIX or PpIX solution, with final concentrations ranging from 320 to 0.31 μg/mL, followed immediately with CFL irradiation for 5 to 15 minutes. The irradiated bacteria were plated onto agar in serial tenfold dilutions (10^7-10^1 cfu/mL); controls included one set of wells without photosensitizer, and one set of wells with photosensitizer but without 15 min irradiation, prior to plating (dark toxicity). Bacterial counts were determined by the drop-plate method using TS-agar plates, and reported in colony-forming units per milliliter (cfu/mL).
(§4) The irradiation source consisted of a 20-W compact fluorescent lightbulb (CFL; Sunlite SL20/BLB) housed in an ellipsoidal reflector dome. Emission spectra were measured with an Acton SpectraPro 2300i spectrometer (1200 gratings/inch), with major peaks at 406 and 438 nm and a minor peak at 548 nm (FIG. 10). Irradiance was measured with a handheld luminometer (Lux/FC HS1010A) positioned 4 cm from the CFL, yielding 91 lux or an average power density of 36.4 mW/cm^2; addition of a 425-nm or 408-nm shortpass filter yielded 31 lux or 12.4 mW/cm^2 corresponding with emission at 406 nm. The CFL produced only minor increases in temperature within the dome (28° C. after 15 min).

[2] = test system: MRSA (USA200), clinical isolate NRS 383; test: as above; type: cell-based, Staphylococcus aureus; settings: for potency relative to dark toxicity (0 min exposure): 15 min CFL, 3-log reduction
Description: as §1, §2, §3, §4

[3] = test system: MRSA (USA800), clinical isolate NRS 387; test: as above; type: cell-based, Staphylococcus aureus; settings: for potency relative to dark toxicity (0 min exposure): 15 min CFL, 3-log reduction
Description: as §1, §2, §3, §4

[4] = test system: MRSA (USA700), clinical isolate NRS 386; test: as above; type: cell-based, Staphylococcus aureus; settings: for potency relative to dark toxicity (0 min exposure): 15 min CFL, 3-log reduction
Description: as §1, §2, §3, §4

[5] = Photophysical measurements (absorption, fluorescence quantum yield); type: physicochemical
Excerpt: Hemin chloride and all reagents were obtained from commercial sources, and used as received unless otherwise noted. Dimethyl sulfoxide (DMSO) was distilled over CaH2 under reduced pressure. Deionized water was obtained from an ultrafiltration system (Milli-Q, Millipore) with a resistivity >18 MΩ·cm, and passed through a 0.22-μm filter to remove particulate matter. Absorption spectra were collected on a Varian Cary50 spectrometer; fluorescence emission data were collected on a Cary Eclipse fluorimeter with a gate time of 5 ms. ^1H NMR spectra were obtained in CDCl3 or DMSO-d6 using a Varian 800-MHz spectrometer; all chemical shifts (δ) reported in ppm.
The quantum yield of Ga-PpIX in deaerated DMSO was determined to be 6.3%, using Ru(II)(bipy)3Cl2 in aerated acetonitrile as a standard.

[6] = test system: CSHR-expressing bacteria; test: Bacterial uptake of GaPpIX, time to saturation; type: cell-based
Description: Bacteria were cultured and assayed in iron-deficient media unless otherwise noted. A stock solution of Ga-PpIX (14.6 μM) was prepared by dispersing 5 mg in 1 mL of 10% DMSO in PBS for 10 minutes in an ultrasonic cleaning bath protected from light, followed by filtration and 10× dilution in PBS just prior to use. Bacterial suspensions (0.5 mL) were treated with freshly prepared solutions of PpIX derivatives for specified periods (5-15 min), then harvested by centrifugation at 5.2 g for 5 minutes, redispersed twice in 0.5 mL deionized water, and centrifuged a third time. A 10-μL aliquot of concentrated bacteria was deposited onto a glass slide and dried in air for 20 min, then imaged by fluorescence microscopy as described above. For details on fluorescence image processing and quantitative analysis, see Supporting Information.
Darkfield and fluorescent images were acquired in succession, with the former used to map regions of interest (ROIs) by tracing the outlines of bacteria (FIG. 8). Three images were acquired for each sample; in each case, the tracing map was overlaid onto the fluorescence image to calculate pixel intensities within each ROI, using the mean pixel intensity for quantitative analysis. […]

[7] = test system: four clinical isolates of MRSA; test: aPDI with CFL irradiation, summary over MRSA isolates; type: cell-based, Staphylococcus aureus
Description: as §1
as §3, with “The irradiated bacteria were plated onto agar in serial tenfold dilutions (10^7-10^1 cfu/mL); controls included one set of wells without photosensitizer, and one set of wells with photosensitizer but without 15 min irradiation, prior to plating (dark toxicity).” left out

[8] = 0 min (dark), no irradiation (dark toxicity)
[9] = 0 min (dark), no irradiation (dark toxicity), listed as PpIX
[10] = 0 min (dark), no irradiation (dark toxicity), listed as Ga-

Row | Compound | Antimicrobial activity (minimum 3-log CFU reduction) [1, 8] [μM] | Antimicrobial activity (minimum 3-log CFU reduction) ([1]; 15 min CFL (11.2 J/cm^2)) [μM] | Eradication (6 log reduction) ([1]; 15 min CFL (11.2 J/cm^2)) [μM] | potency relative to dark toxicity (0 min exposure) [1] [x] | Eradication (6 log reduction) ([1]; No irradiation (dark toxicity)) [μM] | Antimicrobial activity (minimum 3-log CFU reduction) [2, 8] [μM] | Eradication (6 log reduction) ([2]; 15 min CFL (11.2 J/cm^2)) [μM] | potency relative to dark toxicity (0 min exposure) [2] [x] | Eradication (6 log reduction) ([2]; No irradiation (dark toxicity)) [μM] | Antimicrobial activity (minimum 3-log CFU reduction) [3, 8] [μM] | Antimicrobial activity (minimum 3-log CFU reduction) ([3]; 15 min CFL (11.2 J/cm^2)) [μM] | Eradication (6 log reduction) ([3]; 15 min CFL (11.2 J/cm^2)) [μM] | potency relative to dark toxicity (0 min exposure) [3] [x] | Eradication (6 log reduction) ([3]; No irradiation (dark toxicity)) [μM] | Antimicrobial activity (minimum 3-log CFU reduction) [4, 8] [μM] | Antimicrobial activity (minimum 3-log CFU reduction) ([4]; 15 min CFL (11.2 J/cm^2)) [μM] | Eradication (6 log reduction) ([4]; 15 min CFL (11.2 J/cm^2)) [μM] | potency relative to dark toxicity (0 min exposure) [4] [x] | Eradication (6 log reduction) ([4]; No irradiation (dark toxicity)) [μM] | other results
1 | C=CC1=C(C)c2cc3[nH]c(cc4nc(cc5[nH]c(cc1n2)c(C)c5CCC(=O)O)C(CCC(=O)O)=C4C)c(C)c3C=C [PpIX (2), PpIX, reference compound] | >146 | 18.3 | 36.3 | >8 | >146 | 36.3 | 4.6 | 32 | 146 | >146 | 9.1 | 18.3 | 16 | >146 | >146 | 36.3 | 73 | >4 | >146 | Antimicrobial activity (minimum 3-log CFU reduction) [1, 9]: >146^d μM; Antimicrobial activity (minimum 3-log CFU reduction) ([2]; 15 min CFL (11.2 J/cm^2)): 1.1 μM; Antimicrobial activity (minimum 3-log CFU reduction) ([2]; 15 min CFL (11.2 J/cm^2), listed as PpIX): 1.1^c μM; Antimicrobial activity (minimum 3-log CFU reduction) [3, 9]: 146 μM; Antimicrobial activity (minimum 3-log CFU reduction) [4, 9]: >146^d μM
2 | Ga(III)-protoporphyrin [Ga-PpIX (1)] | >146 | 4.6 | 36.3 | >32 | >146 | 36.3 | 2.3 | 32 | 73 | 73 | 1.1 | 2.3 | 64 | 146 | >146 | 4.6 | 18.3 | >32 | >146 | molar extinction coefficient ε ([5]; DMSO, λmax=410 nm, 0.4-10 μM): 154000 M⁻¹ cm⁻¹; fluorescence quantum yield ([5]; deaerated DMSO, Ru(II)(bipy)3Cl2 in aerated acetonitrile as standard): 6.3%; Antimicrobial activity (minimum 3-log CFU reduction) [1, 10]: >146^d μM; Antimicrobial activity (minimum 3-log CFU reduction) ([2]; 15 min CFL (11.2 J/cm^2), listed as Ga-): 1.1^c μM; Antimicrobial activity (minimum 3-log CFU reduction) ([2]; 15 min CFL (11.2 J/cm^2), listed as GaPpIX (1)): 1.1 μM; Antimicrobial activity (minimum 3-log CFU reduction) [4, 10]: >146^d μM; time to saturation of uptake [6]: under 15 minutes; bactericidal activities (aPDI) [7]: 1 to 5 µM
